Measurements taken from paper PMC4490028 (Cancer research, 2015).
One block for each molecule: values may come before it.

Columns and labels:
Abcc2 [1] = test: Pharmacokinetics; conditions: after oral sorafenib 10 mg/kg
Oatp1a/1b;Abcc2 = conditions: oral sorafenib 10 mg/kg; Oatp1a/1b;Abcc2(−/−) mice
[2] = cited from earlier work
Abcc3 = test: Plasma and liver pharmacokinetics after oral sorafenib in Abcc3; assay type: in vivo, mouse; conditions: oral sorafenib 10 mg/kg; Abcc3(−/−) mice
Abcc2 [3] = test: Pharmacokinetics
Oatp1a/1b;Abcc3 = test: Plasma and liver pharmacokinetics after oral sorafenib in Oatp1a/1b; assay type: in vivo, mouse; conditions: oral sorafenib 10 mg/kg; Oatp1a/1b;Abcc3(−/−) mice
human ABCC2 = human ABCC2 (Homo sapiens, UniProt Q92887); test: In vitro vesicular transport, inside-out Sf9 vesicles expressing human ABCC2
Oatp1a/1b;Abcc2;Abcc3 = conditions: oral sorafenib 10 mg/kg; Oatp1a/1b;Abcc2;Abcc3(−/−) mice
Oatp1a/1b = test: Plasma and liver pharmacokinetics after oral sorafenib in Oatp1a/1b; assay type: in vivo, mouse; conditions: oral sorafenib 10 mg/kg; Oatp1a/1b(−/−) mice
[4] = tested on: mouse intestinal β-glucuronidases; test: Ex vivo cecal incubations of SG; assay type: in vitro ADME; conditions: SG 2 µM, 6-hour period
rat Abcc2 = rat Abcc2 (Rattus norvegicus, UniProt Q63120); test: In vitro vesicular transport, inside-out Sf9 vesicles expressing rat Abcc2; conditions: 5-min incubation, ATP 4 mM
[5] = assay type: in vivo, mouse; conditions: oral SG 10 mg/kg
[6] = Sorafenib plasma concentrations in FVB wildtype mice after oral sorafenib; conditions: sorafenib 10 mg/kg oral
human ABCC4 = target: T1, human ABCC4 (Homo sapiens, UniProt O15439); test: In vitro vesicular transport, inside-out Sf9 vesicles expressing human ABCC4
T1 sequence (O15439 1-1325): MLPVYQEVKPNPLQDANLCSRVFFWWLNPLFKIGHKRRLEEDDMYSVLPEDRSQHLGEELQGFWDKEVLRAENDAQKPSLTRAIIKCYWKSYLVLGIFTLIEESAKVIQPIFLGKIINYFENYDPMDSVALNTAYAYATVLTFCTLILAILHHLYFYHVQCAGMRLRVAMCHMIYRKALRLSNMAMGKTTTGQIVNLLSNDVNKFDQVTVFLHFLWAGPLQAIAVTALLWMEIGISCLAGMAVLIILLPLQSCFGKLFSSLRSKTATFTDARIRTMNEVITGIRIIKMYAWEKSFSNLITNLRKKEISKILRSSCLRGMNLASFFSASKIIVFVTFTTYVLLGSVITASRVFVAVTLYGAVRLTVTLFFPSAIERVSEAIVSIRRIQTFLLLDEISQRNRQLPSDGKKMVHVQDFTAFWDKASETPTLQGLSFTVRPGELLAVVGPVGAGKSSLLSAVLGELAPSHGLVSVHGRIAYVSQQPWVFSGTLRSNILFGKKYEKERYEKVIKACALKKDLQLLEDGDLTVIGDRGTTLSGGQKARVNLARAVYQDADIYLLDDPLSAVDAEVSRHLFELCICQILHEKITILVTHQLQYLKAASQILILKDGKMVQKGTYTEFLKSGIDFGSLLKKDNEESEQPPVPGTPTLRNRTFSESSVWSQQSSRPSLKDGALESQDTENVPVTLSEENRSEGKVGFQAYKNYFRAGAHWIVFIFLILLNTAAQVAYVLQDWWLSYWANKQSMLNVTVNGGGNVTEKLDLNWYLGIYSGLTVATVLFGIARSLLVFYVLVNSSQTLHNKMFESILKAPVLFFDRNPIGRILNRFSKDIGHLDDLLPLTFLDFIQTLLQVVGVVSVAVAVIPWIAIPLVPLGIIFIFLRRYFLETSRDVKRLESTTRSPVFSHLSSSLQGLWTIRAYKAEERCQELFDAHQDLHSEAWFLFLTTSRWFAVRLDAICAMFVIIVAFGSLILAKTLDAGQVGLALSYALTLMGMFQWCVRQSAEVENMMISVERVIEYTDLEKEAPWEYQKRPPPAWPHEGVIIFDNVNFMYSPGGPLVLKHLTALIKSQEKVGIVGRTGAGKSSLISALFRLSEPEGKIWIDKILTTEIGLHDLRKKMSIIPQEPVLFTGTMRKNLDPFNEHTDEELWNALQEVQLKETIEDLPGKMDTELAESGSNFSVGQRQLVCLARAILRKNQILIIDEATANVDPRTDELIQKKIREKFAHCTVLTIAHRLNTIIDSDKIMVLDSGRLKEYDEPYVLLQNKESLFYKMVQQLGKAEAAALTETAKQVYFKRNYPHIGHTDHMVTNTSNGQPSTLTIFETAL

Abcc3;Abcc4 = test: Plasma and liver pharmacokinetics after oral sorafenib in Abcc3; conditions: after oral sorafenib 10 mg/kg; Abcc3;Abcc4(−/−) mice
mouse Abcc2 = mouse Abcc2 (Mus musculus, UniProt Q8VI47); test: In vitro vesicular transport, inside-out Sf9 vesicles expressing mouse Abcc2; conditions: SG 10 µM, 5-min incubation, ATP 4 mM
Abcc4 = test: Plasma and liver pharmacokinetics after oral sorafenib in Abcc4; conditions: after oral sorafenib 10 mg/kg; Abcc4(−/−) mice
human ABCC3 = human ABCC3 (Homo sapiens, UniProt O15438); test: In vitro vesicular transport, inside-out Sf9 vesicles expressing human ABCC3; assay type: in vitro ADME
[7] = SG 10 µM, 5-min incubation, ATP 4 mM
[8] = increasing SG concentrations, 5 min, ATP 4 mM
[9] = read-out: Km of SG transport, increasing SG concentrations, 5 min, ATP 4 mM
[10] = rifampin 100 µM, SG 10 µM, 5 min

Sequence of human ABCC2 (Q92887 whole entry): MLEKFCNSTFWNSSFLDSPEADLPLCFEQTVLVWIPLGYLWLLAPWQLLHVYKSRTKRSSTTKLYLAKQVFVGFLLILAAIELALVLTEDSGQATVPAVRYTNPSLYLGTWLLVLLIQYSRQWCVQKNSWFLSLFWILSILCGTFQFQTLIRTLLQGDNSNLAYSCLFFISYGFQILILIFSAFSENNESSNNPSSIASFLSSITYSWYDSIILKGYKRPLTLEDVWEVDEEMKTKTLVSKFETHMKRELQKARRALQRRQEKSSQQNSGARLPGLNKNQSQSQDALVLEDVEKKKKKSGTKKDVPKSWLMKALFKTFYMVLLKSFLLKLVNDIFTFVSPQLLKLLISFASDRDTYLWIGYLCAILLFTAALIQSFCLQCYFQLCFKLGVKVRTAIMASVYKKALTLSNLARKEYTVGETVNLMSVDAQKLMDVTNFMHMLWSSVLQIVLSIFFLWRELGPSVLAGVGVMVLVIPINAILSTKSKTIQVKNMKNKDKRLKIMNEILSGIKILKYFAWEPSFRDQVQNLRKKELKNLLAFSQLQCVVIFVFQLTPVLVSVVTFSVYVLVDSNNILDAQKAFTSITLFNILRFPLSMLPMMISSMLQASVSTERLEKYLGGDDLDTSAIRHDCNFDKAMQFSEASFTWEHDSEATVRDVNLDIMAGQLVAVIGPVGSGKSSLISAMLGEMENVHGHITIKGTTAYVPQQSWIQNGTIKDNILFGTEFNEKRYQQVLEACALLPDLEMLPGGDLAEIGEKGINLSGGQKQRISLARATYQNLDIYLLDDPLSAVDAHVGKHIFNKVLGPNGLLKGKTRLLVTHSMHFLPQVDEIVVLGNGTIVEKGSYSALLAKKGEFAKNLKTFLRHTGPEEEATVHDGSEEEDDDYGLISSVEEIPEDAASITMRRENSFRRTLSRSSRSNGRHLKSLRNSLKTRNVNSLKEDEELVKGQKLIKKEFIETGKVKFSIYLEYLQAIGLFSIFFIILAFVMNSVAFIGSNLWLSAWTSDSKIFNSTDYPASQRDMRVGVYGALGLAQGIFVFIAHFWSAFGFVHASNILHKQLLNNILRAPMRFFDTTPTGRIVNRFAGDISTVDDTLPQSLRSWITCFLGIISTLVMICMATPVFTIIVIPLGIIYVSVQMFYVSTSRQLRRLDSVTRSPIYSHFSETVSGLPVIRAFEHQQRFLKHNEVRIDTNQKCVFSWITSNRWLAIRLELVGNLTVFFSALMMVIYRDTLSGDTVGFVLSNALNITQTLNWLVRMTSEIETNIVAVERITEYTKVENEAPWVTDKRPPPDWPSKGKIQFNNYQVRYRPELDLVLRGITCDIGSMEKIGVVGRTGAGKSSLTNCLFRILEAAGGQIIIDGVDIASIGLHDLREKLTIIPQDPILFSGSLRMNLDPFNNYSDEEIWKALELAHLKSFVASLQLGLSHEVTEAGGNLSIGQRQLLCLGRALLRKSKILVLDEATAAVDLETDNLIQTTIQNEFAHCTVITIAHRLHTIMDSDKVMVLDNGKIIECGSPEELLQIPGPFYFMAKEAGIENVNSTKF
Sequence of human ABCC3 (O15438 whole entry): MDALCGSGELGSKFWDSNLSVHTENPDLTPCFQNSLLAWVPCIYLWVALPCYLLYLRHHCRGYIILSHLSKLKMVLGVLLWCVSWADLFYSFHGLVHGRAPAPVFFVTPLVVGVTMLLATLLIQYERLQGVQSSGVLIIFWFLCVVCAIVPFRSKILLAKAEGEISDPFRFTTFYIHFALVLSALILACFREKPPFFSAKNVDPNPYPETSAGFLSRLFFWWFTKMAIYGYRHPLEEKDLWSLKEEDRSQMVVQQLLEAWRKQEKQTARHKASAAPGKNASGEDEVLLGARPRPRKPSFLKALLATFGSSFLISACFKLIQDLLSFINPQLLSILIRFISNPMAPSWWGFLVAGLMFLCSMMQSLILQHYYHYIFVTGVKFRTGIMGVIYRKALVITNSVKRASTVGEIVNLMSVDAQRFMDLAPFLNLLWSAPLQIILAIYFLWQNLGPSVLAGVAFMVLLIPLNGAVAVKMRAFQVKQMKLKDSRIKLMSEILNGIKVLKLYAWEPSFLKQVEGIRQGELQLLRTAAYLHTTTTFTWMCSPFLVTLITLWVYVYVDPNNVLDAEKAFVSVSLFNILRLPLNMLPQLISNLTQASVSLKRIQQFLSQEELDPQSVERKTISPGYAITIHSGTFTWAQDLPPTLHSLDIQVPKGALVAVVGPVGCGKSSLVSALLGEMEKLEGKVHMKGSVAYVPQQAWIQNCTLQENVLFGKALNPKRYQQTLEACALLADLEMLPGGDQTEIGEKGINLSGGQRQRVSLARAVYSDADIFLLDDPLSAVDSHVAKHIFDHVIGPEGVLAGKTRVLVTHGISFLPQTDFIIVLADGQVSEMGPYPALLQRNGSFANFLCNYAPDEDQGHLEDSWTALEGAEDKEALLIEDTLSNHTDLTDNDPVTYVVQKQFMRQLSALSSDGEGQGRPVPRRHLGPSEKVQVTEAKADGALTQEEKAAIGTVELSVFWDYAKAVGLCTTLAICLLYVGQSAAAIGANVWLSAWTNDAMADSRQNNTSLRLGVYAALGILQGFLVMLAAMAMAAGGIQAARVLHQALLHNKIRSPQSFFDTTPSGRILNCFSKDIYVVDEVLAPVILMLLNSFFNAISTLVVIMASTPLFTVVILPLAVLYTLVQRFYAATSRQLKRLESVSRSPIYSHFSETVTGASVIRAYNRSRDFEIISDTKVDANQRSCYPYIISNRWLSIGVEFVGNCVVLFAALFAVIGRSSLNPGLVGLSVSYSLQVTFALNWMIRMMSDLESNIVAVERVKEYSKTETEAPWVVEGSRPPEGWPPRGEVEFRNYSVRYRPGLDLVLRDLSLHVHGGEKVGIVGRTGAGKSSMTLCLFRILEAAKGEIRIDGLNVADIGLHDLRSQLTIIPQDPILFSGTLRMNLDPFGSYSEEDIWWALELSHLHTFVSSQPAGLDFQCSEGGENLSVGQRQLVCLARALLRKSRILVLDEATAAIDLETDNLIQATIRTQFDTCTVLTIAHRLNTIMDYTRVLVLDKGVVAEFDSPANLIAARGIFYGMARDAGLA
Sequence of rat Abcc2 (Q63120 whole entry): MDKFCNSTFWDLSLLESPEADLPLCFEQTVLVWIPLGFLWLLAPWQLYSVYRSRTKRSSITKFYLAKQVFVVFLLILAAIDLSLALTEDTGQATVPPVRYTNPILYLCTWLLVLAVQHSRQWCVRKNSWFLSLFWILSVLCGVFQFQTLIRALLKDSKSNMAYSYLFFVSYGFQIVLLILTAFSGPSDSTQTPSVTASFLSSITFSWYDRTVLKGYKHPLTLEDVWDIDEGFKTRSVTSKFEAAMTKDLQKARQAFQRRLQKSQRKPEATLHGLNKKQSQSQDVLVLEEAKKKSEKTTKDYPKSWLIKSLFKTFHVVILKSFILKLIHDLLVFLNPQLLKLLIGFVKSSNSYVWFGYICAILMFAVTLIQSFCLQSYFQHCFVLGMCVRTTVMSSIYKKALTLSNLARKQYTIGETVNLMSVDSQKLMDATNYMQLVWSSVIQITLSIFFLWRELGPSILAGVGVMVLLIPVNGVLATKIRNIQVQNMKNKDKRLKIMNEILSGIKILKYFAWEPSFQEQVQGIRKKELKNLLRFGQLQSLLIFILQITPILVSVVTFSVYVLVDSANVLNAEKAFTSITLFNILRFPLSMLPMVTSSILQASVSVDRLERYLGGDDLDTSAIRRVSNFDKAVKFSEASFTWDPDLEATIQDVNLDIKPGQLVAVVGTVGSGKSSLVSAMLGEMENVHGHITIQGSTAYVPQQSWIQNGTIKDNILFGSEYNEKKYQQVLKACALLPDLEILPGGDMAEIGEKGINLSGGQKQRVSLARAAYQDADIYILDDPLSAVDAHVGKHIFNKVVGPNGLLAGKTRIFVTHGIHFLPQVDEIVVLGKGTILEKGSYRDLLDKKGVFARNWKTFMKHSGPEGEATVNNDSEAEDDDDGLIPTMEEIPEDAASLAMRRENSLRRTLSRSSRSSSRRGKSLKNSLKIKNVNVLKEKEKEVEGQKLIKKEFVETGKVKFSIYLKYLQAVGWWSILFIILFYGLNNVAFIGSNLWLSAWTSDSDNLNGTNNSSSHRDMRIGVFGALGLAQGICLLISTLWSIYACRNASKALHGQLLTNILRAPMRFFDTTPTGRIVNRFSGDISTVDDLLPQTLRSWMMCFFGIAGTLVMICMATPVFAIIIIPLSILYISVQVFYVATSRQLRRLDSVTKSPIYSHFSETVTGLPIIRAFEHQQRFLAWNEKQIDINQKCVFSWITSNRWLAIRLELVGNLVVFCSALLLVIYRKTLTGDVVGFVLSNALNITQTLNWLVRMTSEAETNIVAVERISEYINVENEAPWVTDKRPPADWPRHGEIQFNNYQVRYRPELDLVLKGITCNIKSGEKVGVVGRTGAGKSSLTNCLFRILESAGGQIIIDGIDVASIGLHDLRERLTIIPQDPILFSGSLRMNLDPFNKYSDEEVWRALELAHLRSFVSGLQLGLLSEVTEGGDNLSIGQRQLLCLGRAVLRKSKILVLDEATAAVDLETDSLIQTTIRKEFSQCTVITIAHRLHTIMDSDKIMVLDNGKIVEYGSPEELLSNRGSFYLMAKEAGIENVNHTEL

Molecule: CNC(=O)c1cc(Oc2ccc(NC(=O)Nc3ccc(Cl)c(C(F)(F)F)c3)cc2)cc[n+]1[O-] [sorafenib-N-oxide]
- increase in plasma levels in Abcc2(−/−) versus wildtype rats (Abcc2 [1]): ~ 2 fold

- increase in plasma levels in Abcc2(−/−) versus wildtype rats (Abcc2 [1]): ~ 2 fold
- plasma and liver levels of sorafenib (Oatp1a/1b;Abcc2): not substantially altered
- liver levels of sorafenib versus wildtype (Abcc3): similar
- plasma levels of sorafenib versus wildtype (Abcc3): not substantially altered
- biliary output of sorafenib, Abcc2(−/−) compared to wildtype mice (Abcc2 [3]; oral sorafenib 10 mg/kg): not associated with altered
- liver uptake of sorafenib, Abcc2(−/−) compared to wildtype mice (Abcc2 [3]; oral sorafenib 10 mg/kg): not associated with altered
- plasma disposition of sorafenib, Abcc2(−/−) compared to wildtype mice (Abcc2 [3]; oral sorafenib 10 mg/kg): not associated with altered
- liver levels of sorafenib versus wildtype (Oatp1a/1b;Abcc3): similar
- plasma levels of sorafenib versus wildtype (Oatp1a/1b;Abcc3): not substantially altered
- sorafenib uptake relative to control vesicles (human ABCC2; sorafenib 10 µM, 5-min incubation, ATP 4 mM): moderately increased
- plasma and liver levels of sorafenib (Oatp1a/1b;Abcc2;Abcc3): not substantially altered
- liver levels of sorafenib versus wildtype (Oatp1a/1b): similar
- plasma levels of sorafenib versus wildtype (Oatp1a/1b): not substantially altered
- plasma sorafenib exposure, lower than wildtype (Oatp1a/1b): ~ 25%
- sorafenib levels formed from SG in crude suspension of cecal content [4]: corresponding increase
- transport of sorafenib (rat Abcc2; sorafenib 10 µM): weakly
- time until sorafenib was detected in plasma after SG administration ([5]; initial study): 8 h
- sorafenib peak levels in plasma of vehicle-pretreated mice ([5]; at 8 hours after SG administration): 226 to 897 ng/mL
- sorafenib levels in plasma of neomycin-pretreated mice ([5]; neomycin 200 mg/kg twice daily for 5 days, 8 to 24 hours): below the limit of quantification
- time of sorafenib peak levels after SG administration ([5]; vehicle-pretreated mice): 8 h
- sorafenib plasma steady-state concentrations [6]: 6 to 10 µM
Molecule: CNC(=O)c1cc(Oc2ccc(NC(=O)Nc3ccc(Cl)c(C(F)(F)F)c3)cc2)ccn1 [sorafenib]
- average sorafenib plasma steady-state concentrations ([2]; adults and children treated at 400 mg or 200 mg/m^2 twice daily): 10 µM
- decrease of systemic exposure to sorafenib by neomycin treatment ([2]; neomycin treatment in humans): more than 50%

Molecule: sorafenib-glucuronide [SG]
- SG in bile of wildtype or Abcc2(−/−) rats (Abcc2 [1]): not detected
- SG in plasma of wildtype or Abcc2(−/−) rats (Abcc2 [1]): not detected
- uptake of SG relative to control vesicles (human ABCC4; [7]): efficiently increased
- transport efficiency, lower than that observed for ABCC2 (human ABCC4; SG transport): about 7 fold
- Vmax of SG transport (human ABCC4; [8]): 221 ± 11 pmol/min/mg
- Km (human ABCC4; [9]): 146 ± 14 µM
- SG liver-to-plasma ratio in Abcc2(−/−) versus wildtype mice (Abcc2 [3]; after oral sorafenib 10 mg/kg): decreased
- increase in SG liver concentrations in Abcc2(−/−) versus wildtype mice (Abcc2 [3]; after oral sorafenib 10 mg/kg): ~ 3 fold
- increase of plasma levels of SG in Abcc2(−/−) versus wildtype mice (Abcc2 [3]; after oral sorafenib 10 mg/kg): ~ 350 fold
- reduction of biliary output of SG in Abcc2(−/−) versus wildtype mice (Abcc2 [3]; after oral sorafenib 10 mg/kg, bile collected for 2 hours): ~ 12 fold
- urinary excretion (Abcc2 [3]; after oral sorafenib 10 mg/kg, irrespective of Abcc2 status): minor route of elimination
- concentrations of SG in plasma and liver, effect of Abcc4 deficiency (Abcc3;Abcc4): not substantially affected
- uptake of SG relative to control vesicles (human ABCC2; [7]): efficiently increased
- maximal velocity (Vmax) of SG transport (human ABCC2; [8]): 155 ± 11 pmol/min/mg
- uptake of SG relative to control vesicles (mouse Abcc2): efficiently increased
- concentrations of SG in plasma and liver, effect of Abcc4 deficiency (Abcc4): not substantially affected
- uptake of SG relative to control vesicles (rat Abcc2; SG 10 µM): efficiently increased
- uptake of SG relative to control vesicles (human ABCC3; [7]): efficiently increased
- transport efficiency, lower than that observed for ABCC2 (human ABCC3; SG transport): about 7 fold
- Vmax of SG transport (human ABCC3; [8]): 196 ± 44 pmol/min/mg
- Km (human ABCC3; [9]): 186 ± 72 µM

- inhibition of ABCC4-mediated SG uptake (human ABCC4; [10]): sensitive to inhibition
- inhibition of ABCC2-mediated SG uptake (human ABCC2; [10]): sensitive to inhibition
- inhibition of ABCC3-mediated SG uptake (human ABCC3; [10]): sensitive to inhibition
Molecule: CO[C@H]1/C=C/O[C@@]2(C)Oc3c(C)c(O)c4c(O)c(c(/C=N/N5CCN(C)CC5)c(O)c4c3C2=O)NC(=O)/C(C)=C\C=C\[C@H](C)[C@H](O)[C@@H](C)[C@@H](O)[C@@H](C)[C@H](OC(C)=O)[C@@H]1C [rifampin]
